Laboratory results taken from the METLIN SMRT retention time set (Domingo-Almenara et al. 2019).

Test: gradient 5% acetonitrile 3 min, to 50% in 2 min, to 85% in 15 min, held 3 min, 100 µL/min
Settings: column: Zorbax Extend-C18 2.1 x 50 mm; eluents: water / acetonitrile, 0.1% formic acid
Procedure, shortened: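 Pure standards were run in mixtures of ~100 molecules by HPLC coupled to a quadrupole time-of-flight mass spectrometer. The column was a Zorbax Extend-C18 (2.1 × 50 mm, 1.8 μm) at 100 μL/min, with water and acetonitrile each containing 0.1% formic acid, in positive and negative ionization mode. Dead and dwell volumes were 40 μL and 900 μL. Retention time was taken from computationally picked adduct peaks, each manually inspected, with data collected over 3 months.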

Row | RP-LC retention time [s] | Structure (SMILES)
1 | 822 | CCOC(=O)c1[nH]c(C)c(CCC(=O)N2CCCC(C(=O)NC3CCCCC3)C2)c1C (stereo not given)
2 | 954 | CCn1c(=O)c(C)nc2cc(-c3noc(C4CC(=O)N(c5ccc(C)c(C)c5)C4)n3)ccc21 (stereo not given)
3 | 725 | CC1(C(=O)NCc2ccc(Cl)cc2)Oc2cccnc2NC1=O (stereo not given)
4 | 666 | COCCCNC(=O)C1c2ccccc2C(=O)N(C)C1c1ccc(OC)c(OC)c1 (stereo not given)
5 | 796 | CCN1c2ccccc2C(=O)NC12CCN(C(=O)NCc1ccc(C)cc1)CC2
6 | 745 | O=C(Cn1nc2c3cc(F)ccc3ncn2c1=O)Nc1ccc(Br)cc1
7 | 550 | O=C(CN1CCN(C(=O)CCc2ccccc2)CC1)c1cccs1
8 | 576 | CCn1ccc(C(=O)N2CCC(n3c(C)cnc3C3CCC3)C2)n1 (stereo not given)
9 | 1030 | Cc1c(-c2noc(-c3ccccc3F)n2)nnn1Cc1ccccc1
10 | 953 | O=C(c1ccc([N+](=O)[O-])cc1)N(C(=O)N1CCCCC1)c1cccc(Cl)c1
11 | 675 | Cc1cc(C)n(CCNC(=O)CSc2ccc(F)cc2)n1
12 | 727 | CC(=O)N1CCc2sc(S(=O)(=O)NCc3ccc4c(c3)OCO4)cc2C1
13 | 702 | CCC(NC(=O)C1CCN(c2cnc3nccnc3c2)CC1)c1cccs1 (stereo not given)
14 | 933 | O=C(c1ccc2c(c1)OCO2)N1CCC(F)(F)C(COCC2CC2)C1 (stereo not given)
15 | 698 | Cc1ccc(-c2nc3cccnc3n2CCCNC(=O)Nc2ccc3c(c2)OCCO3)cc1
16 | 1040 | Cc1ccc(S(=O)(=O)N2CCCC2)cc1-c1nnc(-c2ccc(F)cc2)o1
17 | 668 | COc1ccc(-c2nnc3n2CCN(Cc2ccccc2C#N)C3)cc1
18 | 880 | CC(=O)c1cccc(NC(=O)CN2CCCN(Cc3cccc(F)c3)S2(=O)=O)c1
19 | 1180 | CC1CCCN(c2nn(CC(=O)Nc3cc(F)cc(F)c3)c(=O)c3ccccc23)C1 (stereo not given)
20 | 744 | CCc1noc([C@@H]2CC(F)(F)CN2C(=O)c2nccn2C)n1
21 | 684 | O=C(NCCCN1CCCCC1)C1CCCN(c2ncc(-c3ccc(F)cc3)cn2)C1 (stereo not given)
22 | 905 | Cc1ccccc1-c1nnc(CSc2nnc(NC(=O)c3c(F)cccc3F)s2)o1
23 | 800 | COc1ccc(C(=O)N2CCCC2COc2ccc(C(=O)N3CCCC3)cc2)cc1 (stereo not given)

Row | RP-LC retention time [s] | Structure (SMILES)
24 | 656 | CCOc1ccc(NC(=O)NCc2nc(-c3ccc(OCC)cc3)oc2C)cc1
25 | 795 | Cc1ccc(F)cc1S(=O)(=O)N1CC(F)(F)C[C@H]1CN1CCc2ccccc2C1
26 | 622 | Cn1c(=O)c(C(=O)N2CCCC2)nc2ccccc21
27 | 639 | O=C(NCc1ccc2c(c1)OCO2)C(=O)NCC1CCCO1 (stereo not given)
28 | 602 | O=C(NC1CCN(c2nnc3ccc(Cl)cn23)CC1)c1ccsc1
29 | 541 | C[C@@]1(O)CCN(Cc2cccc(C#N)c2)C[C@H]1N1CCCC1
30 | 706 | Cc1nc(C(=O)Nc2cccc(F)c2)c(C)n1C1CCN(S(C)(=O)=O)CC1
31 | 645 | Cc1nn(CCCC(=O)NCCCN2CCCCC2)c(=O)c2c1sc1ccccc12
32 | 1160 | CCCNS(=O)(=O)c1cc(-c2nc(C(C)C)cs2)sc1C
33 | 958 | Cn1nc(-c2nnc(-c3ccc(F)cc3)o2)c2c1CCN(S(=O)(=O)c1cc(F)ccc1F)C2
34 | 688 | O=S(=O)(Nc1ccc(Cn2cncn2)cc1)c1ccccc1F
35 | 1420 | CCc1ccc(OCc2nc(C)c(C(=O)Nc3nc(-c4ccc(C)cc4)cs3)s2)cc1
36 | 1040 | CCOc1ccc(CNS(=O)(=O)c2cc(-c3cnn4c(C)cc(C)nc34)ccc2C)cc1OCC
37 | 728 | CCOCCCNC(=O)CCCn1c2ccccc2c2cnn(C)c(=O)c21
38 | 704 | CCN1C(=O)Cc2cc(C(=O)NCc3cccs3)ccc21
39 | 725 | O=C(NCc1ccccc1)c1cn(-c2ccc(NC(=O)C3CC3)cn2)cn1
40 | 917 | CC(=O)N1c2ccc(S(=O)(=O)N3CCCCC3)cc2CC1C(=O)NCCCc1ccccc1 (stereo not given)
41 | 738 | CC1(C)COc2ccc(NC(=O)CN3C(=O)c4ccccc4C3=O)cc2NC1=O
42 | 912 | Cc1ccc(NC(=O)C2CCN(S(=O)(=O)c3cc(C(=O)N(C)C)cs3)CC2)cc1Cl
43 | 581 | Cn1c(=O)c(N2CCCC(C(=O)NCCCN3CCCCCC3)C2)nc2cccnc21 (stereo not given)
44 | 783 | COc1ccccc1-n1ccn2cc(-c3ccc(F)cc3)nc2c1=O
45 | 1030 | Cc1oc2ccn(Cc3ccccc3F)c(=O)c2c1C(=O)NCc1cccs1
46 | 666 | COc1ccc(NC(=O)c2nc(N3CCCC3)c3c(C)cc(C)nc3n2)c(C)c1

Row | RP-LC retention time [s] | Structure (SMILES)
47 | 792 | COC(=O)c1c(NCC(C)C)c2cccc(Cl)c2[nH]c1=O
48 | 1060 | CC(C)(C)c1noc(-c2ccc(-n3cnc(C(=O)NCc4ccccc4)c3)nc2)n1
49 | 725 | COc1ccc(C(=O)NC(CC(C)C)C(=O)Nc2nc3ccccc3[nH]2)cc1 (stereo not given)
50 | 742 | CCOc1ccc(C(=O)N2CCN(c3cc(CC)n4cnnc4n3)CC2)cc1
51 | 563 | CN(CCc1ccccn1)C(=O)c1cn2ccnc(-c3ccccc3)c2n1
52 | 821 | CCCCN(C)S(=O)(=O)c1cc(-c2nnc(C)o2)co1
53 | 936 | CC(C)Cn1c(=O)c(C(=O)NC2CCCC2)nc2cccnc21
54 | 595 | CS(=O)(=O)N(Cc1ccncc1)C1CN(S(=O)(=O)c2ccccc2)C1
55 | 599 | CCCC1c2nccn2CCCN1C(=O)c1cccn1C (stereo not given)
56 | 817 | Cc1nc(CSc2ccc(-c3cccc([N+](=O)[O-])c3)nn2)cs1
57 | 854 | CCOc1cc(=O)n2c(c1C(=O)Nc1cc(Cl)ccc1OC)CCCC2
58 | 608 | Cn1c(=O)c(=O)n(C)c2cc(N3CCCCC3)c(NC(=O)CN3CCOCC3)cc21
59 | 939 | CCOc1ccc(CCNC(=O)CN2C(=O)CSc3cccn3-c3ccccc32)cc1OCC
60 | 728 | CC(=O)N1CCC(C(=O)NCc2nn(Cc3ccccc3)c3ccccc23)CC1
61 | 649 | O=C(NCCCn1c(-c2ccncc2)nc2cccnc21)NCCc1ccccc1
62 | 856 | COC(=O)C1CCN([C@H]2CS(=O)(=O)C[C@@H]2S(=O)(=O)c2ccc(Cl)cc2)CC1
63 | 654 | Cc1cc(C(=O)N2CCC[C@H]2c2nc(-c3ccccc3)n[nH]2)nn1C
64 | 963 | CCOc1ccc(C2C(=O)N(C3CCCCCC3)CC(=O)N2Cc2ccco2)cc1OC (stereo not given)
65 | 688 | Cc1cc(N2CCN(C(=O)Nc3ccc(C)c(Cl)c3)CC2)nc(N2CCOCC2)n1
66 | 764 | O=C(NCc1ccccc1F)C1CCN(c2nnc3ccc(C(F)(F)F)cn23)CC1
67 | 1210 | CC(Oc1cc(O)c2c(=O)cc(-c3ccccc3)oc2c1)C(=O)c1ccccc1 (stereo not given)
68 | 616 | Cc1cc(N2CCN(C(=O)CCc3ccccc3)CC2)nc2nnc(C)n12
69 | 619 | Cc1ccc(CS(=O)(=O)N[C@@H]2CN(c3ncccn3)C[C@H]2CN(C)C)cc1

Row | RP-LC retention time [s] | Structure (SMILES)
70 | 1360 | Cc1ccc(C)c(NC(=O)c2c(O)c3cccnc3n(-c3ccc(F)cc3)c2=O)c1
71 | 718 | COc1ccccc1C(=O)NCCc1nc2cccnc2n1C(C)C
72 | 763 | O=C(NCC1(c2cccs2)CCOCC1)c1ccccc1F
73 | 782 | Cc1ccc(-c2nc3nc(C)cc(C)n3c2Nc2ccccc2C)cc1
74 | 762 | OC(CNCc1ccc(-c2cc(Cl)ccc2Cl)o1)c1ccccc1 (stereo not given)
75 | 1130 | O=C(NC1CCCC1)C1CCN(c2ncccc2-c2nc(-c3ccc(Cl)cc3)no2)CC1
76 | 954 | Cc1ccc(Cl)cc1NC(=O)C1CCN(S(C)(=O)=O)c2ccccc2O1 (stereo not given)
77 | 929 | CCn1nccc1-c1cccc(-c2noc(C(C)NC(=O)c3ccccc3)n2)c1 (stereo not given)
78 | 872 | COCCNC(=O)c1cc2c(n(-c3ccc(C(C)C)cc3)c1=O)CCCC2=O
79 | 804 | CCc1cccc(C)c1NC(=O)CN1C(=O)NC2(CCCCC2)C1=O
80 | 617 | CCCc1cc(N2CCN(C(=O)c3ccco3)CC2)nc2nnc(CC)n12
81 | 716 | CCn1ccc2sc(C)c(C(=O)NCc3cc(OC)ccc3OC)c2c1=O
82 | 1000 | CCOc1ccc(NC(=O)C2(C)Oc3cccnc3N(C(C)C)C2=O)cc1 (stereo not given)
83 | 1210 | Cc1ccc(CNC(=O)C2CCCN(c3nc4c(s3)c(C)nn4-c3ccc(C)cc3)C2)cc1 (stereo not given)
84 | 683 | O=c1oc2c(O)c(O)ccc2c2c1CCCC2
85 | 966 | CC(C)c1nn2c(S(=O)(=O)NCc3cccs3)c(C(C)C)nc2s1
86 | 1210 | COc1ccc(C(=S)N2CCN(c3cccc(Cl)c3)CC2)cc1
87 | 1110 | CN(C)c1cccc(-c2nc(C3CC(=O)N(c4ccc(Cl)cc4)C3)no2)c1 (stereo not given)
88 | 908 | CCOC(=O)C(C(=O)Nc1ccccn1)C1CCCCC1 (stereo not given)
89 | 798 | Cc1cc(OCC(=O)N2CCC3(O)CCCCC3C2)c2c(C)c(C)c(=O)oc2c1 (stereo not given)

Row | Structure (SMILES) | RP-LC retention time [s]
90 | CN1C2CCC1CC(OC(=O)C(CO)c1ccccc1)C2 (stereo not given) | 638
